These results are taken from ChEMBL document CHEMBL1133412, “Rational design, synthesis and structure-activity relationships of antitumor (E)-2-benzylidene-1-tetralones and (E)-2-benzylidene-1-indanones” (Bioorg Med Chem Lett, 2000).

What all share (type): functional, cell-based
For one assay, the system named is L1210. The experiment in a line: Cytotoxicity was evaluated against L1210 tumor cell lines; Inactive. The conditions noted are these: Mus musculus.
The test system of the next assay is HL-60. In words: Cytotoxicity was evaluated against HL-60 tumor cell lines; Inactive. The conditions noted are these: Homo sapiens.
The subject of another assay is A549. The experiment in a line: Cytotoxicity was evaluated against A549 tumor cell lines; Inactive. The conditions noted are these: Homo sapiens.
In a further assay the test system is MOLT-4. The experiment in a line: Cytotoxicity was evaluated against Molt-4 tumor cell lines; Inactive. The conditions noted are these: Homo sapiens.
In another assay the test system is WIL2. In words: Cytotoxicity was evaluated against WIL2 tumor cell lines; Inactive. The conditions noted are these: Homo sapiens.
A further assay deals with NCI-H292. The experiment in a line: Cytotoxicity was evaluated against H292 tumor cell lines; Inactive. The conditions noted are these: Homo sapiens.
A further assay deals with NIH3T3. In words: Cytotoxicity was evaluated against NIH3T3 tumor cell lines; Inactive. The conditions noted are these: Mus musculus.
Another assay concerns B16. In words: Cytotoxicity was evaluated against B16 tumor cell lines; Inactive. The conditions noted are these: Mus musculus.
For another assay, the system named is MCF7. In words: Cytotoxicity was evaluated against MCF-7 tumor cell lines; Inactive. The conditions noted are these: Homo sapiens.
The subject of a further assay is Jurkat. In words: In vitro test for antitumor activity against human Jurkat cell line using a formazan dye (MTT) conversion assay.
The next assay has as its system WI-38. The experiment in a line: Cytotoxicity was evaluated against WI38 tumor cell lines; Inactive. The conditions noted are these: Homo sapiens.
The next assay deals with CCRF-CEM. The experiment in a line: Cytotoxicity was evaluated against CEM tumor cell lines; Inactive. The conditions noted are these: Homo sapiens.
Another assay deals with K562. The experiment in a line: Cytotoxicity was evaluated against K562 tumor cell lines; Inactive. The conditions noted are these: Homo sapiens.
A further assay has as its system NCI-H596. The experiment in a line: Cytotoxicity was evaluated against H596 tumor cell lines; Inactive. The conditions noted are these: Homo sapiens.

Active and inactive are the calls of the source. The calls are words filed in the database; no cut-off is given here.

Broadly, the IC50 is the concentration that inhibits the measured activity by half. A higher IC50 goes with a need for much substance. As to `COc1cc2c(cc1OC)C(=O)/C(=C/c1cccc(OC)c1OC)CC2`, the Cytotoxicity entry with L1210, in the assay on HL-60, in the assay on A549, in the assay with MOLT-4, in the assay with WIL2 and in the assay with NCI-H292 was “inactive” each time. The Cytotoxicity result in the assay on NIH3T3, in the assay with B16, in the assay with MCF7, with WI-38, in the assay on CCRF-CEM and in the assay on K562 was “inactive” in each case. The Cytotoxicity result in the assay with NCI-H596 is “inactive”. Also, the concentration for half-maximal inhibition (IC50) with Jurkat is greater than 50 µM.

Turning to `O=C1/C(=C/c2cc(Cl)cc(Cl)c2)Cc2cc(O)c(O)cc21`, the Cytotoxicity entry in the assay on L1210, in the assay with HL-60, in the assay on A549, in the assay on MOLT-4, in the assay on WIL2 and with NCI-H292 was “inactive” throughout. Moreover, the Cytotoxicity result in the assay with NIH3T3, in the assay with B16, in the assay with MCF7, in the assay on WI-38, with CCRF-CEM and in the assay with K562 was “inactive” in each case. For the same compound, the Cytotoxicity result in the assay on NCI-H596 was “inactive”. This compound also displayed an IC50 in the assay with Jurkat greater than 50 µM.

Turning to `COc1cc2c(c([N+](=O)[O-])c1OC)C(=O)/C(=C/c1cc(C)c([N+](=O)[O-])c(C)c1)C2`, the Cytotoxicity result in the assay with L1210, in the assay with HL-60, in the assay on A549, with MOLT-4, in the assay with WIL2 and in the assay on NCI-H292 was “inactive” throughout. Moreover, the Cytotoxicity entry in the assay on NIH3T3, in the assay with B16, in the assay on MCF7, in the assay with WI-38, in the assay on CCRF-CEM and in the assay on K562 was “inactive” each time. The Cytotoxicity result in the assay with NCI-H596 was “inactive”. This compound came in with an IC50 with Jurkat greater than 50 µM.

As to `COc1ccc(/C=C2\CCc3cc(OC)c(OC)cc3C2=O)c(OC)c1`, the Cytotoxicity entry with L1210, with HL-60, with A549, in the assay on MOLT-4, in the assay with WIL2 and in the assay with NCI-H292 was “inactive” in each case. The Cytotoxicity result in the assay with NIH3T3, in the assay with B16, in the assay with MCF7, with WI-38, in the assay on CCRF-CEM and with K562 was “inactive” in each case. For the same compound, in the assay with NCI-H596, the Cytotoxicity entry is “inactive”. Also, in the assay with Jurkat, the IC50 was greater than 50 µM.

Turning to `COc1cc2c(cc1OC)C(=O)/C(=C/c1c(OC)cccc1OC)CC2`, the Cytotoxicity entry in the assay with L1210, in the assay on HL-60, with A549, with MOLT-4, in the assay on WIL2 and in the assay on NCI-H292 was “inactive” throughout. Also, the Cytotoxicity result in the assay on NIH3T3, in the assay with B16, with MCF7, in the assay with WI-38, with CCRF-CEM and in the assay on K562 was “inactive” each time. Further, the Cytotoxicity result with NCI-H596 was “inactive”. This compound also showed an IC50 in the assay on Jurkat greater than 50 µM.

On to `COc1ccc(/C=C2\CCc3cc(OC)c(OC)cc3C2=O)cc1OC`, for which the Cytotoxicity result in the assay with L1210, in the assay on HL-60, with A549, with MOLT-4, in the assay with WIL2 and in the assay on NCI-H292 was “inactive” in each case. In addition, the Cytotoxicity result in the assay on NIH3T3, with B16, in the assay on MCF7, in the assay with WI-38, with CCRF-CEM and in the assay on K562 was “inactive” each time. Besides, the Cytotoxicity entry in the assay on NCI-H596 is “inactive”. In the assay on Jurkat, this compound showed an IC50 greater than 50 µM.

For the compound `COc1cc2c(cc1OC)C(=O)/C(=C/c1ccc(O)c(C(=O)O)c1)CC2`, the Cytotoxicity entry with L1210, in the assay on HL-60, with A549, with MOLT-4, with WIL2 and in the assay with NCI-H292 was “inactive” each time. For the same compound, the Cytotoxicity entry in the assay with NIH3T3, with B16, with MCF7, in the assay on WI-38, in the assay with CCRF-CEM and in the assay on K562 was “inactive” in each case. For the same compound, the Cytotoxicity entry with NCI-H596 was “inactive”. The same compound gave a concentration for half-maximal inhibition (IC50) in the assay with Jurkat greater than 50 µM.

As to `COc1cc2c(c([N+](=O)[O-])c1OC)C(=O)/C(=C/c1cc(C)c(O)c(C)c1)C2`, the Cytotoxicity result with L1210, in the assay with HL-60, in the assay with A549, in the assay with MOLT-4, in the assay on WIL2 and in the assay on NCI-H292 was “inactive” each time. Further, the Cytotoxicity entry with NIH3T3, in the assay on B16, with MCF7, in the assay with WI-38, with CCRF-CEM and in the assay on K562 was “inactive” throughout. Further, the Cytotoxicity result in the assay with NCI-H596 is “inactive”. Besides, the IC50 with Jurkat is greater than 50 µM.

Turning to `Cc1cc(/C=C2\Cc3cc4c(cc3C2=O)OCO4)cc(C)c1O`, the Cytotoxicity result in the assay on L1210, in the assay with HL-60, in the assay with A549, in the assay on MOLT-4, with WIL2 and in the assay with NCI-H292 was “inactive” each time. For the same compound, the Cytotoxicity result with NIH3T3, in the assay with B16, with MCF7, with WI-38, in the assay with CCRF-CEM and in the assay on K562 was “inactive” in each case. In the assay with NCI-H596, the Cytotoxicity result is “inactive”. Moreover, the IC50 in the assay on Jurkat is greater than 50 µM.
